Results published in patent US4604383A, “Pyrrolidin-2-ones and medicaments containing them” (Societe Anonyme Styled: SANOFI, priority 1983, dated 1986).
Where two headings read alike, the source gives them in different places.

Assays:
[1] = Potentiation of narcosis with pentobarbital (loss of righting reflex); type: in vivo, mouse (CD1 Charles Rivers mice); settings: mouse, 60 min before pentobarbital 20 mg/kg i.p.; for Potentiation of pentobarbital, percent of animals in narcosis: products at 100 mg/kg p.os.; for ED50: po, p.os., probit method, confidence limits in parentheses, P <= 0.05
Procedure: For the purpose of evaluating the hypnogenic power of the products, their capacity to potentiate the effects of a subnarcotic dose of pentabarbital in the mouse was studied. The batches were constituted by 10 CD1 Charles Rivers mice, of weight comprised between 20 and 24 g.
The pentobarbital (20 mg/kg, i.p.) was administered 60 minutes after administration of the products. The drowsiness criterion taken was the loss of the righting reflex.

[2] = Antagonism to the convulsions caused by 3-mercaptopropionic acid; type: in vivo, mouse (CD Charles Rivers mice); settings: mouse, oral, 60 min before 3-mercaptopropionic acid 60 mg/kg s.c.; probit method, confidence limits in parentheses, p <= 0.05; read-out: Median effective dose (ED50) of antagonism to convulsions caused by 3-mercaptopropionic acid
Procedure: (§1) The anticonvulsant effect of the products in the mouse was evaluated on a model of convulsions caused by electric shock, and on 2 models of convulsions induced by chemical agents: bicuculline and 3-mercaptopropionic acid.
The batches were constituted by 10 CD Charles Rivers mice of weights comprised between 20 and 22 g. The products were administered orally 60 minutes before the 3-mercaptopropionic acid (60 mg/kg s.c.).

[3] = Acute toxicity, determination of the lethal dose in the mouse; settings: in vivo, po, read-out: Percent toxicity (animals which die in 72 hours)
Procedure: The toxicity of the products according to the invention was studied: the products were administered orally, to batches of 5 CD Charles Rivers female mice, of weights comprised between 20 and 24 g. The toxicity was noted during the 72 hours which followed the administration of the products.
The results expressed as a percentage of animals which die in the 72 hours following the oral administration of the products, are noted in the preceding table.

[4] = Effect on spontaneous motility (Boissier and Simon activity test, actimetric cages); type: in vivo, mouse (CD1 Charles Rivers female mice); settings: mouse; for Locomotor activity, score percent/controls: 100 mg/kg p.os., 45 min after administration, 10 min recording, * P <= 0.05, ** P <= 0.01; for Effect on spontaneous motility (in words): oral dose of 100 mg/kg
Procedure: The spontaneous motility of the animals was measured by means of the activity test developed by Boissier and Simon, Arch. Int. Pharmacocyn., 1965, 158, 212-221. The equipment is composed of actimetric cages, type Apelab (26×21.5×10 cm), traversed by two light rays which fall on a photoelectric cell. The batches were constituted by CD1 Charles Rivers female mice, of weight comprised between 20 and 24 g. The animals were placed individually in cages 45 minutes after oral administration of the products at the dose of 100 mg/kg. Each traversal by a light beam was counted by an individual counter. The scores corresponding to the movements of the animals were recorded for 10 minutes, and compared with the scores taken on batches of control animals, treated only with the vehicle (5% gum arabic).

[5] = Antagonism of convulsions and of mortality caused by bicucullin; type: in vivo, mouse (CD Charles Rivers mice)
Procedure: as §1
The batches were constituted by 10 CD Charles Rivers mice of weights comprised between 20 and 22 g. The products were administered orally, 60 minutes before the bicucullin (0.8 mg/kg, i.v.).

[6] = Antagonism of the convulsions induced by electric shock; type: in vivo, mouse (CD1 Charles Rivers mice); settings: mouse, oral, 60 min before electroshock; probit method, confidence limits in parentheses, p <= 0.05; read-out: Median effective dose (ED50) of electric shock antagonism
Procedure: as §1
The test was slightly modified from that of Swinyard et al., J. Pharm. Exp. Ther., 1952, 106, 319-330 and Asami et al. Arzneim. Forsch., 1974, 24 (1), 1563-1568. The equipment was composed of a Racia shock generator provided with two occular electrodes delivering a current of 60 volts for 0.3 seconds. The batches were constituted by 10 CD1 Charles Rivers mice of weight comprised between 20 and 24 g. The products were administered orally, 60 minutes before the electroshock.

[7] = Mus musculus, po, read-out: Median effective dose (ED50) of the antagonism to the effects of bicucullin: Mortality
[8] = mouse, oral, 60 min before bicucullin 0.8 mg/kg i.v., probit method, confidence limits in parentheses, p < 0.05, read-out: Median effective dose (ED50) of the antagonism to the effects of bicucullin: Tonic convulsions

SMILES | Potentiation of pentobarbital, percent of animals in narcosis [1] | ED50 [2] | mortality at 72 h ([3]; 250 mg/kg p.os.) | mortality at 72 h ([3]; 500 mg/kg p.os.) | mortality at 72 h ([3]; 1000 mg/kg p.os.) | Locomotor activity, score percent/controls [4] | Effect on spontaneous motility (in words) [4] | mortality at 72 h ([3]; 250 mg/kg) | mortality at 72 h ([3]; 500 mg/kg) | mortality at 72 h ([3]; 1000 mg/kg) | ED50 [5, 7] | ED50 [5, 8] | ED50 [1] | ED50 [6]
CC1CC(Cc2ccc(F)cc2)NC1=O (stereo not drawn) [SR 41882, 5[(4-fluoro-phenyl)-methyl]-3-methyl-2-pyrrolidinone] | 20% | 41 mg/kg | 0% | 0% | 100% |  |  |  |  |  |  |  |  | 
C[C@H]1C[C@@H](Cc2cccs2)NC1=O (relative stereo) [SR 42009, 3-methyl-5-(2-thienyl-methyl)-2-pyrrolidinone] |  |  |  |  |  | -23% | sedative activity characterized by a considerable reduction in the motility | 0% | 0% | 40% |  |  |  | 
C[Si](C)(C)C1CC(Cc2ccccc2)NC1=O (stereo not drawn) [SR 42134] |  |  | 0% | 0% | 0% |  |  |  |  |  |  |  |  | 
CC1(C)CC(Cc2ccccc2Cl)NC1=O (stereo not drawn) [SR 41880] | 40% |  | 0% | 0% | 20% |  |  |  |  |  |  |  |  | 
CC1(C)CC(Cc2ccc(F)cc2)NC1=O (stereo not drawn) [SR 41293, 3,3-dimethyl-5-[(4-fluoro-phenyl)-methyl]2-pyrrolidinone] | 80% | 20 mg/kg | 0% | 0% | 80% |  |  |  |  |  | 41 mg/kg | 90 mg/kg | 56 mg/kg | 99 mg/kg
CC1CC(Cc2ccc(Cl)cc2)NC1=O (stereo not drawn) [SR 42354] |  | 40 mg/kg | 0% | 0% |  |  |  |  |  |  | 66 mg/kg | 63 mg/kg |  | 34 mg/kg
CC1CC(Cc2c(F)cccc2Cl)NC1=O (stereo not drawn) [SR 42004] | 30% | 27 mg/kg | 0% | 0% | 0% |  |  |  |  |  | > 100 mg/kg | ~100 mg/kg |  | 34 mg/kg
CC(C)C1CC(Cc2ccc(Cl)cc2)NC1=O (stereo not drawn) [SR 42726] |  |  | 0% | 0% | 20% |  |  |  |  |  |  |  |  | 72 mg/kg
CC1CC(Cc2ccc(Cl)cc2Cl)NC1=O (stereo not drawn) [SR 41676] | 100% | 23 mg/kg | 0% | 0% | 0% | -34% | sedative activity characterized by a considerable reduction in the motility |  |  |  |  |  | 48 mg/kg | 
CC1(C)CC(Cc2ccc(Cl)cc2Cl)NC1=O (stereo not drawn) [SR 42508] |  |  | 0% | 0% | 0% |  |  |  |  |  | 73 mg/kg | ~100 mg/kg |  | 50 mg/kg
CC1(C)CC(Cc2ccc(Cl)cc2)NC1=O (stereo not drawn) [SR 41873] | 10% | 48 mg/kg | 0% | 0% |  |  |  |  |  |  | 85 mg/kg | 112 mg/kg |  | 62 mg/kg
CCCCC1([Si](C)(C)C)CC(Cc2ccccc2)NC1=O (stereo not drawn) [SR 42133] |  |  | 0% | 0% | 0% |  |  |  |  |  |  |  |  | 
COc1ccc(CC2CC(c3ccccc3)C(=O)N2)cc1OC (stereo not drawn) [SR 41773] |  |  | 0% | 0% |  |  |  |  |  |  |  |  |  | 
CCC1(C)CC(Cc2ccccc2F)NC1=O (stereo not drawn) [SR 42001, 3-ethyl-5-[(2-fluoro-phenyl)-methyl]-3-methyl 2-pyrrolidinone] | 20% |  | 0% | 0% | 20% |  |  |  |  |  | 62 mg/kg | 83 mg/kg |  | 
CC1CC(Cc2cccc(C(F)(F)F)c2)NC1=O (stereo not drawn) [SR 42401] |  |  | 0% | 0% |  |  |  |  |  |  | 72 mg/kg | 62 mg/kg |  | 39 mg/kg
C[C@@H]1C[C@@H](Cc2cccs2)NC1=O (relative stereo) [SR 42008, 3-methyl-5-(2-thienyl-methyl)-2-pyrrolidinone] |  |  |  |  |  | -52% | sedative activity characterized by a considerable reduction in the motility | 0% | 0% | 0% |  |  |  | 
CC1(C)CC(Cc2cccc(C(F)(F)F)c2)NC1=O (stereo not drawn) [SR 42725] |  |  | 0% | 0% | 0% |  |  |  |  |  | 66 mg/kg | ~100 mg/kg |  | 34 mg/kg
COc1ccc(CC2CC(C)(C)C(=O)N2)cc1OC (stereo not drawn) [SR 41677] | 30% |  | 0% | 0% |  |  |  |  |  |  |  |  |  | 
CC1CC(Cc2ccccc2)NC1=O (stereo not drawn) [SR 42010] |  | 44 mg/kg | 0% |  |  |  |  |  |  |  |  |  |  | 105 mg/kg
CC1CC(Cc2cccc(Cl)c2)NC1=O (stereo not drawn) [SR 42717] |  |  | 0% | 0% | 100% |  |  |  |  |  | 59 mg/kg | ~100 mg/kg |  | 41 mg/kg
CCC1(C)CC(Cc2ccc(F)cc2)NC1=O (stereo not drawn) [SR 42002] | 50% | 49 mg/kg | 0% | 0% | 100% |  |  |  |  |  |  | ~100 mg/kg |  | 49 mg/kg
Cc1ccc(CC2CC(C)(C)C(=O)N2)cc1 (stereo not drawn) [SR 42003] |  |  | 0% | 0% | 0% |  |  |  |  |  |  |  |  | 
